pIC50: −log10 of the molar value.
Tested on: 633275-114-R-J1-PDC complex spheroids, viability
Experiment: Anticancer human tumor 633275-114-R-J1-PDC patient-derived endometrial adenocarcinoma cell line growth inhibition [GQUAD]
Conditions: for pIC50: curve of first compound; for viability, T/C: stronger effect = lower value; active = viability on the fitted dose curve at most 10% of control; inactive = the rest
Summary of the method: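 Viability of tumor cells grown as complex spheroids with endothelial and stromal cells, exposed to drug combinations. Top concentration at or near clinical Cmax (else 10 microM), diluted in half-log increments.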

[1] = second compound 0.0316 µM, first compound 0.0316 µM
[2] = second compound 0.0316 µM, first compound 0.1 µM
[3] = second compound 0.0316 µM, first compound 0.316 µM
[4] = second compound 0.0316 µM, first compound 1 µM
[5] = second compound 0.0316 µM, first compound 3.16 µM
[6] = second compound 0.0316 µM, first compound 10 µM
[7] = second compound 0.1 µM, first compound 0.0316 µM
[8] = second compound 0.1 µM, first compound 0.1 µM
[9] = second compound 0.1 µM, first compound 0.316 µM
[10] = second compound 0.1 µM, first compound 1 µM
[11] = second compound 0.1 µM, first compound 3.16 µM
[12] = second compound 0.1 µM, first compound 10 µM
[13] = second compound 0.316 µM, first compound 0.0316 µM
[14] = second compound 0.316 µM, first compound 0.1 µM
[15] = second compound 0.316 µM, first compound 0.316 µM
[16] = second compound 0.316 µM, first compound 1 µM
[17] = second compound 0.316 µM, first compound 3.16 µM
[18] = second compound 0.316 µM, first compound 10 µM
[19] = second compound 1 µM, first compound 0.0316 µM
[20] = second compound 1 µM, first compound 0.1 µM
[21] = second compound 1 µM, first compound 0.316 µM
[22] = second compound 1 µM, first compound 1 µM
[23] = second compound 1 µM, first compound 3.16 µM
[24] = second compound 1 µM, first compound 10 µM
[25] = second compound 3.16 µM, first compound 0.0316 µM
[26] = second compound 3.16 µM, first compound 0.1 µM
[27] = second compound 3.16 µM, first compound 0.316 µM
[28] = second compound 3.16 µM, first compound 1 µM
[29] = second compound 3.16 µM, first compound 3.16 µM
[30] = second compound 3.16 µM, first compound 10 µM
[31] = second compound 10 µM, first compound 0.0316 µM
[32] = second compound 10 µM, first compound 0.1 µM
[33] = second compound 10 µM, first compound 0.316 µM
[34] = second compound 10 µM, first compound 1 µM
[35] = second compound 10 µM, first compound 3.16 µM
[36] = second compound 10 µM, first compound 10 µM
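Note: spheroids exposed to the agents for seven days.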
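Throughout, for viability, T/C: percent of DMSO vehicle control viability which is 100%.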

O=C(c1cc(Cc2n[nH]c(=O)c3ccccc23)ccc1F)N1CCN(C(=O)C2CC2)CC1 + Cc1[nH]c2ccc(F)cc2c1-c1nc2c3cccnc3c3ncccc3c2[nH]1
inactive: viability, T/C [1] 90% | viability, T/C [2] 88.3% | viability, T/C [3] 88% | viability, T/C [4] 84.7% | viability, T/C [5] 80.5% | viability, T/C [6] 64.5% | viability, T/C [7] 98% | viability, T/C [8] 89.9% | viability, T/C [9] 94% | viability, T/C [10] 79.5% | viability, T/C [11] 80% | viability, T/C [12] 56.9% | viability, T/C [13] 92.1% | viability, T/C [14] 93% | viability, T/C [15] 88.8% | viability, T/C [16] 83.1% | viability, T/C [17] 76% | viability, T/C [18] 55.4% | viability, T/C [19] 90.6% | viability, T/C [20] 89.7% | viability, T/C [21] 88.4% | viability, T/C [22] 77.1% | viability, T/C [23] 74.1% | viability, T/C [24] 56.7% | viability, T/C [25] 69.8% | viability, T/C [26] 67.4% | viability, T/C [27] 68.4% | viability, T/C [28] 63.5% | viability, T/C [29] 59.5% | viability, T/C [30] 48.2% | viability, T/C [31] 68.9% | viability, T/C [32] 66.5% | viability, T/C [33] 70.2% | viability, T/C [34] 62.1% | viability, T/C [35] 61.1% | viability, T/C [36] 49.4%
< 5.00: pIC50 (second compound 0.0316 µM) | pIC50 (second compound 0.1 µM) | pIC50 (second compound 0.316 µM) | pIC50 (second compound 1 µM) | pIC50 (second compound 10 µM)
5.08: pIC50 (second compound 3.16 µM)

CC1COCCN1c1cc(C2(S(C)(=N)=O)CC2)nc(-c2ccnc3[nH]ccc23)n1 (centres undefined) + CN(C)c1ccc(Nc2c3ccc(NC(=O)CCN4CCCC4)cc3nc3cc(NC(=O)CCN4CCCC4)ccc23)cc1
5.52: pIC50 (second compound 3.16 µM)
5.35: pIC50 (second compound 0.1 µM)
5.42: pIC50 (second compound 0.316 µM)
5.56: pIC50 (second compound 1 µM)
inactive: viability, T/C [1] 101% | viability, T/C [2] 103% | viability, T/C [3] 103% | viability, T/C [4] 74.2% | viability, T/C [5] 54.6% | viability, T/C [6] 34.9% | viability, T/C [7] 115% | viability, T/C [8] 96.1% | viability, T/C [9] 97.1% | viability, T/C [10] 84.6% | viability, T/C [11] 53.1% | viability, T/C [12] 34.5% | viability, T/C [13] 109% | viability, T/C [14] 94.7% | viability, T/C [15] 101% | viability, T/C [16] 82.9% | viability, T/C [17] 52.8% | viability, T/C [18] 35.4% | viability, T/C [19] 98% | viability, T/C [20] 87.8% | viability, T/C [21] 95.4% | viability, T/C [22] 70.1% | viability, T/C [23] 49% | viability, T/C [24] 33.7% | viability, T/C [25] 86.3% | viability, T/C [26] 85.1% | viability, T/C [27] 84.4% | viability, T/C [28] 66.9% | viability, T/C [29] 50.7% | viability, T/C [30] 32.8% | viability, T/C [31] 37% | viability, T/C [32] 38.2% | viability, T/C [33] 36% | viability, T/C [34] 32.6% | viability, T/C [35] 28% | viability, T/C [36] 19.9%
5.46: pIC50 (second compound 0.0316 µM)
> 7.50: pIC50 (second compound 10 µM)
